Test results from US20040043959A1, “Combination therapies for treating methylthioadenosine phosphorylase deficient cells” (priority 2002, published 2004).

Molecular target: T1, Human MTAP (Homo sapiens, UniProt Q13126)
T1 construct: six-histidine tag (His6) (N); made in house; host or cells: E. coli BL21 DE3
T1 sequence (Q13126 1-283): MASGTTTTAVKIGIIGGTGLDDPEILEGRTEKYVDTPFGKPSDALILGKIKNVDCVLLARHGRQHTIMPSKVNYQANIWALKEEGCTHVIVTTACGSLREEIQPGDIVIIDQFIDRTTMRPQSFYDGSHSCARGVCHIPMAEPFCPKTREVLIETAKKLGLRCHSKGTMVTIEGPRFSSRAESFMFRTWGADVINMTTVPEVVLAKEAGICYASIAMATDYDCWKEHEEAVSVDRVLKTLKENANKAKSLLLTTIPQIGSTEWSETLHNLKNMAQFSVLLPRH
Assay: MTAP substrate assay, coupled spectrophotometric (adenine, xanthine oxidase)
Format: biochemical
Conditions: 2 nM MTAP; for activity at 50 µM: 10 min, compound 50 uM, relative to MTA at 50 uM, read-out: MT-A—50: initial velocity as a percentage of the initial velocity with MTA as substrate; for MT-A—10: initial velocity as a percentage of the initial velocity with MTA as substrate: compound 10 uM, relative to MTA at 10 uM
Procedure, shortened: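 Detection was xanthine oxidase-coupled (0.8 units/ml), reading adenine-derived absorbance at 305 nm over 10 min in potassium phosphate/DTT buffer at 37° C, with N-His6 enzyme purified from E. coli.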

## Nc1ncnc2c1ncn2[C@@H]1O[C@H](CSc2cccc(C(F)(F)F)c2)[C@@H](O)[C@H]1O [2(G)(99), (2R, 3R,4S, 5S)-2-(6-amino-9H-purin-9-yl)-5-({[3-(trifluoromethyl)-phenyl]thio}methyl)-tetrahydrofuran-3,4-diol]
  activity at 50 µM: 18%
  MT-A—10: initial velocity as a percentage of the initial velocity with MTA as substrate: 17%

## Cc1nccnc1SC[C@H]1O[C@@H](n2cnc3c(N)ncnc32)[C@H](O)[C@@H]1O [2(G)(100), (2R, 3R, 4S, 5S)-2-(6-amino-9H-purin-9-yl)-5-{[(3-methylpyrazin-2-yl)thio]methyl}tetrahydro-furan-3,4-diol]
  activity at 50 µM: 10%
  MT-A—10: initial velocity as a percentage of the initial velocity with MTA as substrate: 7%

## Nc1ncnc2c1ncn2[C@@H]1O[C@H](CSc2cccc(O)c2)[C@@H](O)[C@H]1O [2(G)(101), (2R, 3R, 4S, 5S)-2-(6-amino-9H-purin-9-yl)-5-{[(3-hydroxyphenyl)-thio]methyl}tetrahydro-furan-3,4-diol]
  activity at 50 µM: 38%
  MT-A—10: initial velocity as a percentage of the initial velocity with MTA as substrate: 36%

## Nc1ncnc2c1ncn2[C@@H]1O[C@H](CSc2c(Cl)cccc2Cl)[C@@H](O)[C@H]1O [2(G)(102), (2R, 3R, 4S, 5S)-2-(6-amino-9H-purin-9-yl)-5-{[(2,6-dichIorophenyl)-thio]methyl}tetrahydro-furan-3,4-diol]
  activity at 50 µM: 3%
  MT-A—10: initial velocity as a percentage of the initial velocity with MTA as substrate: 2%

## Nc1ncnc2c1ncn2[C@@H]1O[C@H](CSc2ccc(C(F)(F)F)cc2[N+](=O)[O-])[C@@H](O)[C@H]1O [2(G)(103), (2R, 3R, 4S, 5S)-2-(6-amino-9H-purin-9-yl)-5-({[2-nitro-4-(trifluoromethyl)phenyl]thio}methyl)tetrahydro-furan-3,4-diol]
  activity at 50 µM: 4%
  MT-A—10: initial velocity as a percentage of the initial velocity with MTA as substrate: 3%

## Nc1ncnc2c1ncn2[C@@H]1O[C@H](CSCC(=O)Nc2ccccc2)[C@@H](O)[C@H]1O [2(G)(104), 2-({[(2S, 3S, 4R, 5R)-5-(6-amino-9H-purin-9-yl)-3,4-dihydroxytetrahydro-furan-2-yl]methyl}thio)-N-phenylacetamide]
  activity at 50 µM: 15%
  MT-A—10: initial velocity as a percentage of the initial velocity with MTA as substrate: 5%

## Nc1ncnc2c1ncn2[C@@H]1O[C@H](CSc2ccc([N+](=O)[O-])cn2)[C@@H](O)[C@H]1O [2(G)(105), (2R, 3R, 4S, 5S)-2-(6-amino-9H-purin-9-yl)-5-{[(5-nitropyridin-2-yl)thio]methyl}tetrahydro-furan-3,4-diol]
  activity at 50 µM: 21%
  MT-A—10: initial velocity as a percentage of the initial velocity with MTA as substrate: 17%

## Nc1ncnc2c1ncn2[C@@H]1O[C@H](CSc2c[nH]c3ccccc23)[C@@H](O)[C@H]1O [2(G)(106), (2R, 3R, 4S, 5S)-2-(6-amino-9H-purin-9-yl)-5-[(1H-indol-3-ylthio)-methyl]-tetrahydrofuran-3,4-diol]
  activity at 50 µM: 3%
  MT-A—10: initial velocity as a percentage of the initial velocity with MTA as substrate: 6%

## COC(=O)c1ccccc1SC[C@H]1O[C@@H](n2cnc3c(N)ncnc32)[C@H](O)[C@@H]1O [2(G)(107), methyl 2-({[(2S, 3S, 4R, 5R)-5-(6-amino-9H-purin-9-yl)-3,4-dihydroxy-tetrahydrofuran-2-yl]-methyl}thio)-benzoate]
  activity at 50 µM: 2%
  MT-A—10: initial velocity as a percentage of the initial velocity with MTA as substrate: 4%

## Nc1ncnc2c1ncn2[C@@H]1O[C@H](CSc2ccc(/C=C/C(=O)O)cc2)[C@@H](O)[C@H]1O [2(G)(108), (2E)-3-[4-({[(2S, 3S, 4R, 5R)-5-(6-amino-9H-purin-9-yl)-3,4-dihydroxytetra-hydrofuran-2-yl]methyl}thio)phenyl]acrylic acid]
  activity at 50 µM: 19%
  MT-A—10: initial velocity as a percentage of the initial velocity with MTA as substrate: 8%

## COC(=O)c1cccc(SC[C@H]2O[C@@H](n3cnc4c(N)ncnc43)[C@H](O)[C@@H]2O)c1 [2(G)(109), methyl 3-({[(2S, 3S, 4R, 5R)-5-(6-amino-9H-purin-9-yl)-1,3,4-dihydroxytetra-hydrofuran-2-yl]methyl}thio)benzoate]
  activity at 50 µM: 8%
  MT-A—10: initial velocity as a percentage of the initial velocity with MTA as substrate: 8%

## COC(=O)/C=C/c1ccc(SC[C@H]2O[C@@H](n3cnc4c(N)ncnc43)[C@H](O)[C@@H]2O)cc1 [2(G)(110), methyl (2E)-3-[4-({[(2S, 3S, 4R, 5R)-5-(6-amino-9H-purin-9-yl)-dihydroxy-tetrahydrofuran-2-yl]-methyl}thio)phenyl]-acrylate]
  activity at 50 µM: 9%
  MT-A—10: initial velocity as a percentage of the initial velocity with MTA as substrate: 15%

## COc1cccc(-c2nnc(SC[C@H]3O[C@@H](n4cnc5c(N)ncnc54)[C@H](O)[C@@H]3O)n2C)c1 [2(G)(111), (2R, 3R, 4S, 5S)-2-(6-amino-9H-purin-9-yl)-5-({[5-(3-methoxyphenyl)-4-methyl-4H-1,2,4-triazol-3-yl]thio}-methyl)tetrahydrofuran-3,4-diol]
  activity at 50 µM: 4%
  MT-A—10: initial velocity as a percentage of the initial velocity with MTA as substrate: 8%

## Nc1ncnc2c1ncn2[C@@H]1O[C@H](CSc2nccc(-c3ccco3)n2)[C@@H](O)[C@H]1O [2(G)(112), (2R, 3R, 4S, 5S)-2-(6-amino-9H-purin-9-yl)-5-({[4-(2-furyl)pyrimidin-2-yl]thio}methyl)tetrahydro-furan-3,4-diol]
  activity at 50 µM: 10%
  MT-A—10: initial velocity as a percentage of the initial velocity with MTA as substrate: 17%

## Cn1c(SC[C@H]2O[C@@H](n3cnc4c(N)ncnc43)[C@H](O)[C@@H]2O)nc2ccccc21 [2(G)(113), (2R, 3R, 4S, 5S)-2-(6-amino-9H-purin-9-yl)-5-{[(1-methyl-1H-benzimidazol-2-yl)thio]-methyl}tetrahydro-furan-3,4-diol]
  activity at 50 µM: 43%
  MT-A—10: initial velocity as a percentage of the initial velocity with MTA as substrate: 48%

## CC(=O)NCCSC[C@H]1O[C@@H](n2cnc3c(N)ncnc32)[C@H](O)[C@@H]1O [2(G)(114), N-[2-({[(2S, 3S, 4R, 5R)-5-(6-amino-9H-purin-9-yl)-3,4-dihydroxytetra-hydrofuran-2-yl]methyl}thio)ethyl]acetamide]
  activity at 50 µM: 11%
  MT-A—10: initial velocity as a percentage of the initial velocity with MTA as substrate: 29%

## CSc1ccc(SC[C@H]2O[C@@H](n3cnc4c(N)ncnc43)[C@H](O)[C@@H]2O)cc1 [2(G)(115), (2R, 3R, 4S, 5S)-2-(6-amino-9H-purin-9-yl)-5-({[4-(methylthio)phenyl]-thio}methyl)tetrahydro-furan-3,4-diol]
  activity at 50 µM: 15%
  MT-A—10: initial velocity as a percentage of the initial velocity with MTA as substrate: 12%

## Nc1ncnc2c1ncn2[C@@H]1O[C@H](CSc2ccccc2OC(F)(F)F)[C@@H](O)[C@H]1O [2(G)(116), (2R, 3R, 4S, 5S)-2-(6-amino-9H-purin-9-yl)-5-({[2-(trifluoromethoxy)-phenyl]thio}methyl)tetra-hydrofuran-3,4-diol]
  activity at 50 µM: 7%
  MT-A—10: initial velocity as a percentage of the initial velocity with MTA as substrate: 3%

## Nc1ncnc2c1ncn2[C@@H]1O[C@H](CSc2ccccc2F)[C@@H](O)[C@H]1O [2(G)(117), (2R, 3R, 4S, 5S)-2-(6-amino-9H-purin-9-yl)-5-{[(2-fluorophenyl)thio)-methyl}tetrahydrofuran-3,4-diol]
  activity at 50 µM: 28%
  MT-A—10: initial velocity as a percentage of the initial velocity with MTA as substrate: 25%
